Literature values as cited in patent US20190358249A1, “Injectable Combination Products Of Fosaprepitant And 5-HT3 Blocker” (Navinta III Inc, priority 2018, published 2019).
Entries after “also recorded” stand apart in the source; their conditions may differ. Structures can show the parent of a compound that is named as a salt.

Legend:
[1] = precipitates when the pH is above the range
[2] = 1% w/v in water
[3] = tested on: subjects receiving highly emetogenic cisplatin-based chemotherapy; details: added to ondansetron and dexamethasone

Question: For `C[C@@H](O[C@H]1OCCN(Cc2nc(O)n(P(=O)(O)O)n2)[C@H]1c1ccc(F)cc1)c1cc(C(F)(F)F)cc(C(F)(F)F)c1` [Fosaprepitant], which “solubility in water (in words)” value (water) is on record?
Answer: good solubility

Question: Which “pH above which free base precipitates” value [1] does the source give for `Cc1nccn1CC1CCc2c(c3ccccc3n2C)C1=O` (stereo not drawn) [Ondansetron] here?
Answer: 5.7-7

Question: And the “pH of a 1% w/v solution in water” value [2]?
Answer: about 4.6

Question: And the solubility in saline (saline)?
Answer: 0.8%

Question: And the solubility in water (water)?
Answer: 3.2%

Question: For `C[C@@H](O[C@H]1OCCN(Cc2n[nH]c(=O)[nH]2)[C@H]1c1ccc(F)cc1)c1cc(C(F)(F)F)cc(C(F)(F)F)c1` [Aprepitant], which “protection against CINV” value [3] is on record?
Answer: consistently superior protection

Question: What about the “solubility in water (in words)” value (water) of the same molecule?
Answer: very low solubility; also recorded: minimal solubility; also recorded: practically insoluble

Question: With `O=C1c2cccc3c2[C@H](CCC3)CN1[C@@H]1CN2CCC1CC2` [Palonosetron Hydrochloride] as the molecule, how does the “solubility in aqueous media” value (across the physiological pH range) read?
Answer: very soluble

Question: And the “solubility in water (in words)” value (water)?
Answer: freely soluble
